Assay results from US6544962B1, “Methods for treating cellular proliferative disorders” (Matrix Pharmaceutical, Inc., priority 2000, dated 2003).

What was measured:
[1] = test system: A549 Human NSCLC Xenografts; assay: Anti-tumor activity, A549 human NSCLC xenografts, multiple dose; format: in vivo, nu/nu mice; conditions: i.p.; for TVQT (days) (M ± SE), tumor volume quadrupling time: FMdC or gemcitabine 20 mg/kg Day 0, 3, 7, 10, CDDP 4 mg/kg Day 0, 7, FMdC 15 minutes prior to cisplatin; for TGD (days) (M ± SE), tumor growth delay: FMdC or gemcitabine 20 mg/kg Day 0, 3, 7, 10, CDDP 4 mg/kg Day 0, 7, difference of TVQT vs untreated control
Excerpt: This example evaluated the effect of FMdC in combination with cisplatin in a human non-small-cell lung cancer (NSCLC) xenograft model. This combination was compared to the administration of the combination of gemcitabine with cisplatin. Gemcitabine (Gemzar®, Eli Lilly and Company) is 2′-deoxy-2′,2′-difluorocytidine (dFdC).
(§1) Xenogeneic NSCLC tumors of A549 cells (available through ATCC, Rockville, Md.) were induced by intradermal injection of approximately 5×10^6 cells into the flanks of female nu/nu mice. Two to three weeks after tumor cell inoculation, when the tumors were approximately 10 mm^3 in size, treatment with FMdC, gemcitabine or cisplatin solution was administered intraperitoneally (i.p.) in a volume of approximately 10 μL per gram of mouse body weight. Six to eight animals were used per treatment group.
(§2) The injectable solutions were prepared as follows: Lyophilized FMdC was reconstituted with sterile saline to a concentration of 2 or 20 mg/mL; gemcitabine was reconstituted with sterile saline to a concentration of 2 mg/mL; and cisplatin solution was prepared from lyophilized cisplatin (Cisplatin for Injection, David Bull Laboratories) by reconstitution with sterile water to a concentration of 0.4 or 0.6 mg/mL.
For this multiple treatment regimens, FMdC or gemcitabine was administered twice a week for two weeks at 20 mg/kg and cisplatin was administered once a week for two weeks at 4 mg/kg. FMdC was administered by injection 15 minutes prior to the administration of cisplatin.
(§3) Tumor growth and animal body weight were determined twice weekly for up to 30 days. Tumor volume quadrupling time (TVQT) was used as the study endpoint. Tumor growth delay (TGD) is the difference between TVQTs of a treated group and untreated control.

[2] = test system: A549; assay: MTT cell growth inhibition assay, A549 lung carcinoma cells; format: cell-based, human; conditions: 72 hours exposure
Experimental: (§4) The antiproliferative activity of FMdC in combination with cisplatin on growth inhibition in human carcinoma cell lines in vitro was studied using the following method.
(§5) Two lung carcinoma cell lines, A549 and Calu-6, (available through ATCC, Rockville, Md.), were cultured in F12K medium with 10% fetal bovine serum at an atmosphere of 5% CO2 at 37° C. All cells were exposed to both FMdC and cisplatin in different concentrations for 72 hours.
(§6) Cell growth inhibition was determined by measuring the metabolic activity of cells using the MTT (tetrazolium salt) assay. For the MTT assays, the cells were seeded at 4×10^3 in 100 μL per well in a 96-well microtiter culture plate. The concentration of FMdC ranged from 10 nM to 100 μM and the concentration of cisplatin ranged from 1 μM to 10 mM. At the end of the treatment, tetrazolium salt (MTT) was added to each well and then solubilized. The microtiter plate was then measured (O.D. at 570 nm) using an ELISA plate reader. The 50% inhibitory concentrations (IC50) values of FMdC and cisplatin as single agents and in combination were determined.

[3] = test system: Calu-6; assay: MTT cell growth inhibition assay, Calu-6 lung carcinoma cells; format: cell-based, human; conditions: Calu-6 cells, 72 hours exposure
Experimental: as §4, §5, §6

[4] = test system: A549 Human NSCLC Xenografts; assay: Influence of time interval between FMdC and CDDP, A549 human NSCLC xenografts, single dose; format: in vivo, nu/nu mice; conditions: single agent, single dose i.p.; FMdC 200 mg/kg, CDDP 6 mg/kg
Excerpt: (§7) This example evaluated the effect of FMdC in combination with cisplatin in two human non-small-cell lung cancer (NSCLC) xenograft models. This example examined the influence of the time interval between FMdC and cisplatin administration.
as §1, with “A549 cells or Calu-6” for “A549”, “FMdC and/or” for “FMdC, gemcitabine or”
as §2, with “mg/mL;” for “mg/mL; gemcitabine”
as §3

[5] = test system: Calu-6 Human NSCLC Xenografts; assay: Influence of time interval between FMdC and CDDP, Calu-6 human NSCLC xenografts, single dose; format: in vivo, nu/nu mice; conditions: single agent, single dose i.p.; FMdC 200 mg/kg, CDDP 6 mg/kg
Excerpt: as §7
as §1, with “A549 cells or Calu-6” for “A549”, “FMdC and/or” for “FMdC, gemcitabine or”
as §2, with “mg/mL;” for “mg/mL; gemcitabine”
as §3

Row | SMILES | TVQT (days) (M ± SE), tumor volume quadrupling time [1] | TGD (days) (M ± SE), tumor growth delay [1] | Cell growth inhibition / cell death (MTT assay) [2] | Cell growth inhibition / cell death (MTT assay) [3] | TGD (days) (M ± SE) [4] | TVQT (days) (M ± SE) [4] | TGD (days) (M ± SE) [5] | TVQT (days) (M ± SE) [5]
1 | Nc1ccn([C@@H]2O[C@H](CO)[C@@H](O)C2(F)F)c(=O)n1 [Gemcitabine, 2′-deoxy-2′,2′-difluorocytidine] | 18.7 ± 1.0 days | 1.9 ± 1.6 days |  |  |  |  |  | 
2 | Nc1ccn([C@@H]2O[C@H](CO)[C@@H](O)/C2=C\F)c(=O)n1 [FMdC, (E)-2′-deoxy-2′-(fluoromethylene)cytidine] | 19.8 ± 1.1 days | 3.0 ± 1.6 days | not effective | not effective | 3.6 ± 1.3 days | 17.8 ± 1.0 days | 2.0 ± 0.6 days | 11.3 ± 0.4 days
3 | N.N.[Cl][Pt][Cl] [CDDP, cis-diamminedichloroplatinum] | 18.1 ± 0.9 days | 1.3 ± 1.5 days | not effective | not effective | 1.9 ± 2.0 days | 16.1 ± 1.8 days | 8.8 ± 1.6 days | 18.1 ± 1.5 days
